{
  "source": "patent US20060194748A1",
  "about": "“Methods for treating disorders induced by H. pylori infections and pharmaceutical compositions for the same” (National University Corporation Nagoya University, priority 2005, published 2006)",
  "key": {"H. pylori strain 26695 [1]": {"test_system": "H. pylori strain 26695", "test": "MBC of AMX with glycine by liquid culture method", "procedure": "H. pylori was treated with the indicated concentrations of the test compounds for 3 days. AMX was used at concentrations of 0 to 75 ng/ml. […] The mean value for the log number of CFU per milliliter at each concentration was plotted.\nBy a second method, the minimal bactericidal concentrations (MBCs), defined as the lowest concentration of each antibiotic that completely killed the isolates, were determined by using liquid cultures with antimicrobial agents by a modification of the method of Sjöström et al. (31). […] After 3 days of incubation of H. pylori at 37° C. under microaerophilic conditions, aliquots from each culture were applied to BB agar for determination of the MBC. After 4 days of incubation, the number of CFU was counted."}, "H. pylori 26695": {"test_system": "H. pylori 26695", "test": "Time-kill curve test", "procedure": "Glycine in BB was added to the cultures at the start of incubation. The mean values for the log number of CFU per milliliter versus time for H. pylori were tested with different concentrations of glycine. At 12-h intervals after drug addition, aliquots of each culture were spread onto BB agar for determination of the number of CFU.\nThe time course of the antibacterial effects was determined with strain 26695 (18). Briefly, bacteria cultured for 4 days on BB agar were diluted with fresh BB to ˜10^8 CFU/ml. […] At 0, 12, 24, 36, and 48 h, samples were removed and 0.1 ml of 10-fold serial dilution was plated onto BB agar. […] At 0, 6, 12, 18, and 24 h, samples were removed and 0.1 ml of 10-fold serial dilutions was plated onto BB agar. The number of colonies growing on the plates after 4 days of incubation was counted in both studies."}, "H. pylori strains": {"test_system": "H. pylori strains", "test": "MIC of CLR for donor strains and CLR-resistant isogenic mutants (agar/disk dilution)", "format": "cell-based, Helicobacter pylori", "description": "The susceptibilities of the CLR-resistant strains were determined by the agar dilution method (27). […] The MIC of glycine was defined as the lowest concentration that inhibited the visible growth of isolates completely by the agar dilution method on Mueller-Hinton agar (Becton Dickinson and Company, Paramus, N.J.) plates supplemented with 5% aged sheep blood (Nippon Bio-Test Laboratories Inc., Tokyo, Japan) (M-H agar) (27).\n(§1) Briefly, all isolates were incubated for 4 days on BB agar. After this incubation, inocula were prepared by suspending growth from the BB agar plates with antimicrobial agents in saline to achieve a suspension equivalent to a 2.0 McFarland standard. Final inocula of 10^6 CFU/spot were applied to M-H agar or BB. All plates were incubated for 3 days at 35° C. in a microaerophilic atmosphere, and the number of CFU was counted. In the liquid culture study, aliquots from each culture were applied to BB agar after 3 days of incubation of H. pylori at 37° C. under microaerophilic conditions. After 4 days of incubation, the number of CFU was counted. The mean value for the log number of CFU per milliliter was plotted.\nCLR-resistant isogenic mutants with a single point mutation in domain V of the 23S rRNA gene were created from strain 26695 by natural transformation (3, 29). Transformants were isolated, and the MICs of CLR were determined by the disk dilution method."}, "[2]": {"test_system": "31 H. pylori strains, including CLR-resistant strains"}, "[3]": {"test_system": "CLR-susceptible and CLR-resistant H. pylori strains", "description": "H. pylori strains were treated with the indicated concentrations of test compound for 3 days. The mean value for the log number of CFU per milliliter of all CLR-susceptible and all CLR-resistant H. pylori strains at each concentration was plotted. Glycine was used at concentrations of 0, 0.5, 1, 1.5, 2.0, and 2.5 mg/ml. […] Symbols: ▪, CLR-susceptible strains; ▴, CLR-resistant strains.\nas §1"}, "[4]": {"test_system": "Lactococcus lactis subspecies", "conditions": "cited from earlier work"}, "[5]": {"test_system": "31 H. pylori strains, including CLR-resistant strains", "test": "microbe, parasite or virus in culture", "conditions": "Helicobacter pylori"}, "H. pylori strain 26695 [6]": {"test_system": "H. pylori strain 26695", "procedure": "The PAE on bacteria was measured by a modification of the method of Ibrahim et al. (19). After 4 days of growth of strain 26695 on BB agar, the bacteria were harvested, placed into PBS, and diluted with BB to ˜10^8 CFU/ml; and a final inoculum of 10^6 CFU/ml was applied to BB agar. […] After incubation for 8 h, the antibiotics were removed by dilution 1:10^3 into fresh BB and the cultures were incubated for 24 h. Samples were collected for viable counts (numbers of CFU per milliliter) every 4 h, plated onto BB agar plates, and incubated for 4 days. Viability curves were then determined. The control culture, which was not exposed to any antimicrobial agents, was treated similarly.\nFor quantification of the PAE, viable counts were determined before and after antibiotic exposure."}},
  "note": "Like-named read-outs stand apart in the source and are kept apart here.",
  "data": [
    {"smiles": "CC1(C)S[C@@H]2[C@H](NC(=O)[C@H](N)c3ccc(O)cc3)C(=O)N2[C@H]1C(=O)O", "note": "[AMX, amoxicillin]", "values": [
      {"measurement": "MBC of AMX with glycine relative to that of AMX alone", "setting": "H. pylori strain 26695 [1]", "result": "1/10"},
      {"measurement": "MBC", "setting": "H. pylori strain 26695 [1]; Helicobacter pylori, 26695, read-out: MBC of AMX with glycine, with glycine at 0.5 mg/ml", "result": 0.025, "unit": "µg/mL"},
      {"measurement": "MBC", "setting": "H. pylori strain 26695 [1]; Helicobacter pylori, 26695, read-out: MBC of AMX with glycine, with glycine at 1 mg/ml", "result": 0.01, "unit": "µg/mL"},
      {"measurement": "MBC", "setting": "H. pylori strain 26695 [1]; Helicobacter pylori, 26695, read-out: MBC of AMX, with glycine at 0 mg/ml (AMX alone)", "result": 0.075, "unit": "µg/mL"},
      {"measurement": "viable cells at 24 h", "setting": "H. pylori 26695; AMX alone at 75 ng/ml", "result": "no viable cells"}
    ]},
    {"smiles": "CC[C@H]1OC(=O)[C@H](C)[C@@H](O[C@H]2C[C@@](C)(OC)[C@@H](O)[C@H](C)O2)[C@H](C)[C@@H](O[C@@H]2O[C@H](C)C[C@H](N(C)C)[C@H]2O)[C@](C)(OC)C[C@@H](C)C(=O)[C@H](C)[C@@H](O)[C@]1(C)O", "note": "[CLR, clarithromycin]", "values": [
      {"measurement": "MIC of CLR", "setting": "H. pylori strains; isogenic mutant strain 26695:535", "result": 4, "unit": "µg/mL"},
      {"measurement": "MIC of CLR", "setting": "H. pylori strains; isogenic mutant strain 26695:628", "result": 32, "unit": "µg/mL"},
      {"measurement": "MIC of CLR", "setting": "H. pylori strains; strain 535 (donor, A-to-G at position 2144)", "result": 4, "unit": "µg/mL"},
      {"measurement": "MIC of CLR", "setting": "H. pylori strains; strain 628 (donor, A-to-G at position 2143)", "result": 32, "unit": "µg/mL"}
    ]},
    {"smiles": "NCC(=O)O", "note": "[glycine, Glycine]", "values": [
      {"measurement": "MIC of glycine", "setting": "[2]", "result": "the same as the MIC for strain 26695"},
      {"measurement": "difference in glycine MIC for CLR-susceptible and -resistant strains", "setting": "[2]", "result": "no difference"},
      {"measurement": "glycine concentration above which no colonies were detected in M-H agar", "setting": "[2]; all strains tested", "result": "more than 2.5 mg/ml"},
      {"measurement": "difference in suppression of growth between CLR-susceptible and -resistant strains", "setting": "[3]; including isogenic mutant strains, FIG. 1", "result": "no difference"},
      {"measurement": "80% Inh. %", "setting": "[3]; see FIG. 1", "result": 0.05, "unit": "mg/mL"},
      {"measurement": "glycine content of medium above which growth failed", "setting": "[4]", "result": "more than 2%"},
      {"measurement": "time of significant decrease in number of CFU (P<0.01)", "setting": "H. pylori 26695; glycine alone, all concentrations", "result": 48, "unit": "h"},
      {"measurement": "earliest time of significant decrease in number of CFU (P<0.01)", "setting": "H. pylori 26695; glycine at 5 mg/ml", "result": 24, "unit": "h"},
      {"measurement": "earliest time of significant decrease in number of CFU (P<0.01)", "setting": "H. pylori 26695; glycine at 10 mg/ml", "result": 12, "unit": "h"},
      {"measurement": "nature of the effect of glycine", "setting": "H. pylori 26695; time-kill, 0 to 10 mg/ml", "result": "bactericidal"},
      {"measurement": "MIC50", "setting": "[5]", "result": 1500, "unit": "µg/mL"},
      {"measurement": "MIC90", "setting": "[5]; 31 strains", "result": 2500, "unit": "µg/mL"},
      {"measurement": "MIC", "setting": "[5]; ATCC43504, read-out: MIC of glycine", "result": 2500, "unit": "µg/mL"},
      {"measurement": "MIC", "setting": "[5]; read-out: MIC of glycine", "result": 2500, "unit": "µg/mL"},
      {"measurement": "MIC", "setting": "[5]; read-out: glycine MICs for the 31 strains", "result": "1000 to 2500", "unit": "µg/mL"},
      {"measurement": "PAE against H. pylori", "setting": "H. pylori strain 26695 [6]", "result": "no PAE"}
    ]}
  ]
}
